From BindingDB's records for PubMed 20068177 (Wyeth Research)

Target: Phosphatidylinositol 3-kinase regulatory subunit alpha/4,5-bisphosphate 3-kinase catalytic subunit alpha isoform (Homo sapiens, UniProt P27986+P42336)
Experiment: Inhibition of recombinant human full-length N-terminal His6-tagged p110alpha/full length untagged human p85alpha expressed in baculovirus infected Sf21 insect cells using PIP2 as substrate measured after 15 to 30 mins by fluorescence polarization assay

Phosphatidylinositol 3-kinase regulatory subunit alpha/4,5-bisphosphate 3-kinase catalytic subunit alpha isoform, sequence (P27986 whole entry, canonical isoform): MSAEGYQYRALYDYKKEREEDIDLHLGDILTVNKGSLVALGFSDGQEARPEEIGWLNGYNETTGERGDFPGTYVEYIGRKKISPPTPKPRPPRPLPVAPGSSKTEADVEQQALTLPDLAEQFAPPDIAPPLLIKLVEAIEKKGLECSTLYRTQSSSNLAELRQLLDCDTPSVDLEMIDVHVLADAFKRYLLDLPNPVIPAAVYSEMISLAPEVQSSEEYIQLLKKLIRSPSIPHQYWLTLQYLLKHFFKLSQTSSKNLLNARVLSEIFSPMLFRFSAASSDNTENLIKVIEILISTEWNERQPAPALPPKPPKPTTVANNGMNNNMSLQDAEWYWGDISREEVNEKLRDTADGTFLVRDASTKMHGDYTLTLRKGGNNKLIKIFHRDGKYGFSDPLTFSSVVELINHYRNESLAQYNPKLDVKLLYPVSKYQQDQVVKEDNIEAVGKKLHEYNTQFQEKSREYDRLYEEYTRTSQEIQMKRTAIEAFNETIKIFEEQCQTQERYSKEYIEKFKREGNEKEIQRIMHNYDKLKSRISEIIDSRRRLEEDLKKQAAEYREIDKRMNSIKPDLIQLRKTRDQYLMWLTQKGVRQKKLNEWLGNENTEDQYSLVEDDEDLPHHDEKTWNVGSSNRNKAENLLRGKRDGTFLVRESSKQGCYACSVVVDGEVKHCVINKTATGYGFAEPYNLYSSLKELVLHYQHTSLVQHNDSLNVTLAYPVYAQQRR
Phosphatidylinositol 3-kinase regulatory subunit alpha/4,5-bisphosphate 3-kinase catalytic subunit alpha isoform, sequence (P42336 whole entry, canonical isoform): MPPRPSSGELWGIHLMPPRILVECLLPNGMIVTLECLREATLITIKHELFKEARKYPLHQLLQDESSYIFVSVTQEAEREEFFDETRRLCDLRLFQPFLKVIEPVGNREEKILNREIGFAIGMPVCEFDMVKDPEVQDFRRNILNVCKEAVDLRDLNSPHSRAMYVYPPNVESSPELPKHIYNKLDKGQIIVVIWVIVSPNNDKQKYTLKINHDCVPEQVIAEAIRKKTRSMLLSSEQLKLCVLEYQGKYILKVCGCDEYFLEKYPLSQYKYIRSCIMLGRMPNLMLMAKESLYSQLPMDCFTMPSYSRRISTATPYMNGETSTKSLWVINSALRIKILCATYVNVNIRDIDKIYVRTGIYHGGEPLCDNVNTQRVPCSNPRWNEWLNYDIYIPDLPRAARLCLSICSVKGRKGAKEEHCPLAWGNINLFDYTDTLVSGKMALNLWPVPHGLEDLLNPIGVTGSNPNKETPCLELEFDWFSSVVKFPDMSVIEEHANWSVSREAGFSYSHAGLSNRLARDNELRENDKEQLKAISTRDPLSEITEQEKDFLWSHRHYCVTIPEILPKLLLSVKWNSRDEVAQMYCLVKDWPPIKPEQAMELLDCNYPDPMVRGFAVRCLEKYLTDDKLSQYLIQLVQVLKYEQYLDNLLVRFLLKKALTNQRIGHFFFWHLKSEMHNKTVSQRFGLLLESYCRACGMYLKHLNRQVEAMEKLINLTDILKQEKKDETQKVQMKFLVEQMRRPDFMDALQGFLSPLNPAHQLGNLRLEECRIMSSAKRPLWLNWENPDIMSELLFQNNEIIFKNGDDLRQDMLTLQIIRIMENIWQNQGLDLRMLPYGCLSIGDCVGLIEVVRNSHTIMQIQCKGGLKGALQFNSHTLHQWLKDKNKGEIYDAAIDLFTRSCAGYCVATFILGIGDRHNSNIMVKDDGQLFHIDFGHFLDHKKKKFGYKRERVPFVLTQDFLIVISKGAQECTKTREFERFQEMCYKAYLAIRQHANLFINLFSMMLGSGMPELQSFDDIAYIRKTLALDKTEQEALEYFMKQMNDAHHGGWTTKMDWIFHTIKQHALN

IC50: 1180 nM
SMILES: CNC(=O)Nc1ccc(-c2nc(N3CC4CCC(C3)O4)c3cnn(C4CCC5(CC4)OCCO5)c3n2)cc1 [1-(4-(4-(8-oxa-3-azabicyclo[3.2.1]octan-3-yl)-1-(1,4-dioxaspiro[4.5]decan-8-yl)-1H-pyrazolo[3,4-d]pyrimidin-6-yl)phenyl)-3-methylurea]
